Experimental data as given in US8835353B2, “Germination acceleration” (Valent BioSciences Corporation, priority 2007, dated 2014).

How the values were obtained:
[1] = system: sweet corn (cv. Silver Queen); experiment: Pouch study: seed treatment, coleoptile and radicle growth at 10° C.; type: in vivo; details: 6BA 10 ppm, pouches at 10° C.
Description: For all seed treatments, 1 ppm active ingredient refers to 1 microgram active ingredient per gram of seed. For these studies, GA3, GA4/7, 6BA, or CPPU were each dispensed into a 15 ml centrifuge tube, and 2.5 ml of de-ionized water was then added to each tube. The solution was mixed on a vortex mixer and 0.25 ml of this solution was then placed in another 50 ml. centrifuge tube along with 10 grams of sweet corn seed (cv. Silver Queen) or field corn (cv. Hybrid 2652) seed and rotated 360° on a Labquake Rotissarie for 10 minutes to ensure proper seed coverage. To simulate commercial seed treatments, the amount of solutions was just sufficient to wet the seeds. […] Pouch studies: A CYG germination pouch was drenched with 17 ml of 10° C. de-ionized water. Three treated seeds were placed in the trough of the germination paper, contained within the pouch. Pouches were placed in a Nalgene plastic container cooled to 10° C. The container was incubated in a 10° C. growth chamber with a 16 hour light cycle for the duration of the study. Seedling coleoptiles and radicles were measured by removing the seedling from the pouch and measuring with a ruler. […] The amount of applied is expressed as ppm or micrograms of compound per gram of seed. […]

[2] = system: sweet corn (cv. Silver Queen); experiment: Pro-Mix study: seed treatment, coleoptile emergence and length at 10° C.; type: in vivo; details: ProMix at 10° C.
Description: (§1) For all seed treatments, 1 ppm active ingredient refers to 1 microgram active ingredient per gram of seed. For these studies, GA3, GA4/7, 6BA, or CPPU were each dispensed into a 15 ml centrifuge tube, and 2.5 ml of de-ionized water was then added to each tube. The solution was mixed on a vortex mixer and 0.25 ml of this solution was then placed in another 50 ml. centrifuge tube along with 10 grams of sweet corn seed (cv. Silver Queen) or field corn (cv. Hybrid 2652) seed and rotated 360° on a Labquake Rotissarie for 10 minutes to ensure proper seed coverage. To simulate commercial seed treatments, the amount of solutions was just sufficient to wet the seeds. Seeds were dried overnight in weigh boats.
Pro-Mix studies: Pro Mix potting media was cooled to 10° C. and then placed in a 20 inch×10 inch flat to a depth of 5 cm. A trough of twenty seeds/treatment were planted at a depth of 2 cm. Four trays of twenty seeds each were planted per treatment. The trays were incubated in a growth chamber set at 10° C., 16 hour light cycle. Corn emergence counts were made daily.
Sweet corn (cv. Silver Queen) seeds were treated with solutions containing GA4/7, 6BA, or GA4/7 and 6BA, planted into ProMix soil, and held at 10° C. At 22 days after treatment, more seedlings from seeds treated with the combination treatment of GA4/7 and 6BA had emerged than seeds treated with 6BA or GA4/7 alone (Table 2).
Sweet corn (cv. Silver Queen) seeds were treated with solutions containing GA3, 6BA, or GA3 and 6BA, planted into ProMix soil, and held at 10° C.

seedlings = experiment: Preliminary studies: seedling quality and radicle growth after seed treatment; type: in vivo, corn; details: high rates of 6BA (>10 ppm)
[3] = system: hybrid field corn (Hybrid 2652); experiment: Petri plate study: seed treatment, coleoptile emergence at 10° C.; type: in vivo; details: 6BA 10 ppm, petri plates at 10° C.
Description: For all seed treatments, 1 ppm active ingredient refers to 1 microgram active ingredient per gram of seed. For these studies, GA3, GA4/7, 6BA, or CPPU were each dispensed into a 15 ml centrifuge tube, and 2.5 ml of de-ionized water was then added to each tube. The solution was mixed on a vortex mixer and 0.25 ml of this solution was then placed in another 50 ml. centrifuge tube along with 10 grams of sweet corn seed (cv. Silver Queen) or field corn (cv. Hybrid 2652) seed and rotated 360° on a Labquake Rotissarie for 10 minutes to ensure proper seed coverage. To simulate commercial seed treatments, the amount of solutions was just sufficient to wet the seeds. […] Petri plate studies: Each standard petri plate (100 mm×50 mm) contained 1 blue Anchor germination circle (3¼ inches in diameter) drenched with 7 ml of de-ionized water cooled to 10° C. Each treatment consisted of 4 petri plates of 10 seeds each. After plating, the petri plates were placed in a Nalgene plastic container cooled to 10° C. This in turn was incubated in a 10° C. growth chamber with a 16 hour light cycle for the duration of the study. Counts were made by visually examining each seed for radicle and coleoptile protrusion. Hybrid field corn seeds (cv. Hybrid 2652) were treated with solutions containing GA4/7 or 6BA or combinations of GA4/7 and 6BA, plated onto wetted paper in a petri plate, and held at 10° C.

[4] = system: sweet corn (cv. Silver Queen); experiment: as above; type: in vivo; details: petri plates at 10° C.
Description: as §1
Petri plate studies: Each standard petri plate (100 mm×50 mm) contained 1 blue Anchor germination circle (3¼ inches in diameter) drenched with 7 ml of de-ionized water cooled to 10° C. Each treatment consisted of 4 petri plates of 10 seeds each. After plating, the petri plates were placed in a Nalgene plastic container cooled to 10° C. This in turn was incubated in a 10° C. growth chamber with a 16 hour light cycle for the duration of the study. Counts were made by visually examining each seed for radicle and coleoptile protrusion. […]

Structure (SMILES): c1ccc(CNc2ncnc3nc[nH]c23)cc1 [6BA, N^6-phenylmethyl-1H-purin-6-amine]
- Coleoptile length (cm) at 22 days after treatment [1]: 2.17 cm
- Radicle length (cm) at 22 days after treatment [1]: 2.78 cm
- Percent coleoptile emergence at 21 days after treatment ([2]; 6BA 10 ppm): 3.7%
- Percent coleoptile emergence at 22 days after treatment ([2]; 6BA 10 ppm, 22 days): 6.2%
- Coleoptile length above ground (mm) at 32 days after treatment ([2]; 6BA 10 ppm, 32 days): 17.1 mm
- Length of the emerged coleoptiles at 32 days after treatment, compared to the control ([2]; 6BA, 32 days): no significant effect compared to the control
- Radicle growth (seedlings): reduced radicle growth
- Seedling quality (seedlings): substantially reduced seedling quality
- Percent coleoptile emergence at 12 days after treatment [3]: 32%

Structure (SMILES): O=C(Nc1ccccc1)Nc1ccnc(Cl)c1 [CPPU, 1-(2-chloro-4-pyridyl)-3-phenylurea]
- Percent coleoptile emergence at 14 days after treatment ([4]; CPPU 1 ppm): 0%
- Percent coleoptile emergence at 14 days after treatment ([4]; CPPU 10 ppm): 4%

Structure (SMILES): C=C1C[C@]23C[C@@]1(O)CC[C@H]2[C@@]12C=C[C@H](O)[C@@](C)(C(=O)O1)[C@H]2[C@@H]3C(=O)O [GA3, (1α,2β,4aα,4bβ,10β)-2,4a,7-trihydroxy-1-methyl-8-methylenegibb-3-ene-1,10-dicarboxylic acid 1,4a-lactone]
- Percent coleoptile emergence at 21 days after treatment ([2]; GA3 100 ppm): 1.2%
